Measured values from US20080039410A1, “Inositol 1,4,5-Trisphosphate Receptor Mutants and Uses Thereof” (priority 2004, published 2008).
Several values for one entry are separate records, joined by “and”; a condition that tells them apart may be missing. Equal entries are not always repeated. Entries after “also recorded” stand apart in the source; their conditions may differ.

System: S2− InsP3R-1
Assay: Potentiation of CCh-induced Ca2+ release after PKA activation (forskolin), S2− InsP3R-1 constructs in DT-40 3ko cells
Type: cell-based, rat
Conditions: for effect of forskolin treatment on CCh-induced [Ca^2+]i peak: threshold CCh; for Ca^2+ release after PKA activation: S2 − InsP3R-1 constructs, Table 2
Protocol: DT-40 cells lacking all three InsP3 receptor subtypes DT-40 3ko were transfected using electroporation, 350 V and 950 μF. 2×10^7 cells were co-transfected with 25 μg of the InsP3R cDNA, 25 μg of the muscarinic type 3 (M3) receptor, and 4 μg of the red fluorescent protein plasmid pHcRed1-N1. Cells were incubated with DNA in 500 μL of Optimem media on ice for 10 minutes. The cell/DNA mixture was electroporated, incubated on ice for 30 minutes, brought up to 5 ml with Optimem and placed in a 5% C02 incubator at 39° C. for 5 hours. The cells were then centrifuged and resuspended in 12 ml of complete RPMI media. Transfection efficiency was typically ˜20%. Experiments were performed within 32 hours of transfection.
Transfected DT-40 3ko cells were washed once in a HEPES-buffered physiological saline solution (HEPES-PSS) containing (in mM) 5.5 glucose, 137 NaCl, 0.56 MgCl2, 4.7 KCl, 1 Na2HPO4, 10 HEPES (pH 7.4), 1.2 CaCl2 and 1% w/v Bovine Serum Albumin. Cells were then resuspended in BSA HEPES-PSS with 1 μM Fura-2 (AM), placed on a 15 mm glass coverslip in a low volume perfusion chamber (Warner Instruments) and allowed to adhere for 30 minutes at room temperature. Cells were perfused continually for 10 minutes with HEPES-PSS before experimentation to allow Fura-2 de-esterification. A field of cells for each experiment was chosen that contained a wide range of transfection efficiency based upon the intensity of red fluorescence emitted when excited at 560 nm. [Ca^2+]i imaging was performed essentially as previously described using an inverted epifluorescence Nikon microscope with a 40× oil immersion objective lens (numerical aperture, 1.3). Cells were excited alternately with light at 340 and 380 nm (±10 mn bandpass filters, Chroma) using a monochrometer (TILL Photonics). Fluorescence images were captured and digitized with a digital camera driven by TILL Photonics software. Images were captured every 2 seconds with an exposure of 35 ms and no binning. 340/380 ratio images were calculated online and stored immediately to hard disk.
The effects of treatment were determined by normalizing the peak change in fluorescence ratio by stimulation following forskolin or 8-Br cGMP exposure to that of stimulation in control HEPES-PSS. Thus, pooled data represents a normalized fold increase over control for the treated trial. Two tailed heteroscedastic t-tests with P values<0.05 were considered to have statistical significance.
Similar experimental paradigms were employed to assess the effect of PKA-induced phosphorylation on a homogeneous population of S2^− InsP3R-1.
The effects of treatment were determined by normalizing the peak change in fluorescence ratio by stimulation following forskolin or 8-Br-cGMP exposure to that of stimulation in control HEPES-PSS. Thus, pooled data represent a normalized fold increase over control for the treated trial. In all cases where statistical significance is indicated, two-tailed heteroscedastic t tests were performed. P values<0.05 were considered to indicate statistical significance and are denoted by an asterisk in the figures.
The enhanced apparent sensitivity of individual phosphomimetic mutants was essentially equal and intermediate between the sensitivity of the S2−WT and S2−EE mutations. […] To address this possibility directly, experiments were performed evaluating the effects of activating endogenous PKA in cells expressing S2−SE or S2−ES to mimic prior phosphorylation of an individual site. […] To test this, experiments were performed to determine the phosphorylation state of the various mutants after raising cAMP levels. These experiments were performed in HEK-293 cells because of the high transfection efficiency and low endogenous levels of InsP3R-1 (47, 99). […]

Row | Substance | effect of forskolin treatment on CCh-induced [Ca^2+]i peak (20 μM forskolin) | Ca^2+ release after PKA activation | effect on subsequent CCh-induced Ca^2+ release (100 nM, 500 nM or 1 μM forskolin) | fold potentiation of Ca^2+ release (5 μM forskolin (threshold concentration)) [fold] | fold increase in CCh-induced Ca^2+ release in the presence of forskolin (20 μM forskolin, Fura-2, listed as wild-type S2^− InsP3R-1) | effect of forskolin treatment on CCh-induced [Ca^2+]i peak (20 μM forskolin, listed as S2^− InsP3R-1) | effect of forskolin treatment on CCh-induced [Ca^2+]i peak (20 μM forskolin, listed as wild type S2^− InsP3R-1) | effect of forskolin treatment on CCh-induced [Ca^2+]i peak (20 μM forskolin, listed as wild-type S2^− InsP3R-1)
1 | G1690A: InsP3R-1 S2− variant with glycine to alanine substitution at position 1690 (nucleotide binding site mutant) | strikingly absent; also recorded: fails to potentiate |  |  |  |  |  |  | 
2 | S2−EE: phosphomimetic S1589E/S1755E mutant of the short splice variant | no potentiation | No change/NT |  |  |  |  |  | 
3 | S2−ES: phosphomimetic short splice variant S1589E | no potentiation | No change/NT |  |  |  |  |  | 
4 | S2−SE: phosphomimetic short splice variant of S1755E | no potentiation | No change/NT |  |  |  |  |  | 
5 | S2−WT: wild-type rat type-1 InsP3 receptor, peripheral short S2− splice variant (SEQ ID NO: 17) | dramatic potentiation; also recorded: markedly potentiated | Enhanced | failed to enhance | 1.26±0.21 | ~3 fold and ~4 fold | potentiated Ca^2+ release | enhanced CCh stimulated Ca^2+ release | marked potentiation
